What was measured:
[1] = system: guinea pigs excreting normal feces; experiment: Antidiarrheal effect: observation of feces after oral administration of saccharides or sugar alcohols with or without polysaccharides (Example 1); assay type: in vivo; details: maltitol 2.8 g/kg oral, alone or with additive; average of 4 animals; score 0 muddy to 4 hard
[2] = system: guinea pigs excreting normal feces; experiment: as above; assay type: in vivo
Procedure: The criteria for analyzing the conditions of feces (hardness, shape and spaces of feces in the intestine) are as shown in Table 2:
The hardness and microscopic findings of feces from the group administered with distilled water were assessed as “Normal” scoring 3, the feces having normal shape and the shape could rather easily change by pushing with fingers were assessed as “Slightly soft” scoring 2, those of which the shape had already changed or it could quite easily change by pushed with fingers were assessed as “Soft” scoring 1, and those of which the shape is muddy or watery or of no shape were assessed “Muddy” scoring 0. To be precese, there are no watery feces because of the nature of diets and thus the muddy feces correspond to watery and muddy feces in human.
Since the muddy feces comprise large content of water, they induce the high abdominal pressure and the flatulence and distension. […] In the case of gas generation, it appears that noxious symptom such as the flatulence and distension are synergistically deteriorated. Therefore, we assessed not only based on the hardness of feces, but also the size, smoothness of the surface and amount of feces.
In these experiments, I observed is the diarrhea caused by saccharides or sugar alcohols and antidiarrhreal effect of saccharides. Guinea pigs orally received saccharides or sugar alcohols, for example tetrose such as erythritol, pentose such as xylitol or xylose, hexose such as isosorbitol or the like in combination with or without polysaccharides for observation of the feces up to 6 hours after the administration.
Guinea pigs (body weight 280 to 320 g, normal feces) were divided into four groups: for Group 1-a, xylitol alone (Reference Example 1), or xylitol and xanthan gum or pectin; for Group 1-b, xylose alone (Reference Example 2), xylose and xanthan gum or pectin; for Group 1-c, erythritol alone (Reference Example 3), erythritol and pectin, erythritol and xanthan gum, or erythritol, pectin and natural aluminum silicate gel or calcium carbonate; and for Group 1-d, isosorbitol alone (Reference Example 4), or isosorbitol and xanthan gum or pectin were orally administered, respectively. The compounds are dissolved in distilled water and 8 ml/kg of said solution were administered as a single dose.
The feces were observed during 6 hours after the administration. When the animals fell into the most serious condition, the hardness and shape of the feces from said animals were assessed as the effect by saccharides or sugar alcohols in the animals.

endolymphatic hydrops = details: systemic administration; cited from earlier work
[3] = active agent 2.8 g/kg oral, alone or with additive of the label
[4] = maltitol 2.8 g/kg oral, alone or with additive of the label (Table 6)
[5] = maltitol 2.8 g/kg oral, alone or with additive, average of 4 animals, score 0 muddy to 4 hard

Hardness of feces (average score), 12 hr after the administration [1] | Hardness of feces (average score), 18 hr after the administration [1] | Hardness of feces (average score), 24 hr after the administration [1] | Abdominal distension / gas by inspections and palpations [2, 3] | Time after administration when diarrhea / softening of feces started [2, 3] | Time after administration when feces recovered to (almost) normal [2, 3] | Hardness of feces: Hard (number of animals) [2, 4] | Hardness of feces: Muddy (number of animals) [2, 4] | Hardness of feces: Normal (number of animals) [2, 4] | Hardness of feces: Slightly soft (number of animals) [2, 4] | Hardness of feces: Soft (number of animals) [2, 4] | Hardness of feces (average score), 1 hr after the administration [2, 5] | Hardness of feces (average score), 2 hr after the administration [2, 5] | Hardness of feces (average score), 3 hr after the administration [2, 5] | Hardness of feces (average score), 4 hr after the administration [2, 5] | Hardness of feces (average score), 5 hr after the administration [2, 5] | Hardness of feces (average score), 6 hr after the administration [2, 5] | SMILES | Decompression effect on endolymphatic hydrops (endolymphatic hydrops) | Effect in the normal ear (endolymphatic hydrops)
0 | 1.2 | 2.5 | abdominal distension was observed | 3 h | ≥ 24 h | 0 | 6 | 0 | 0 | 0 | 3 | 2.3 | 1.7 | 0.2 | 0 | 0 | OC[C@@H](O)[C@@H](O[C@H]1O[C@H](CO)[C@@H](O)[C@H](O)[C@H]1O)[C@H](O)[C@@H](O)CO [Maltitol, maltitol] | – | –
– | – | – | – | – | – | – | – | – | – | – | – | – | – | – | – | – | Cc1ccccc1C(=O)Nc1ccc(C(=O)N2CCCC(N(C)C)c3ccccc32)cc1 (stereo not shown) [OPC 31260] | did not reveal the decompression effect | formation of endolymphatic hydrops in the normal ear

Reference: patent US8445461B2, “Pharmaceutical composition for meniere's disease” (Setsuko Takeda, priority 2007, dated 2013)
